Earlier results as cited in patent US20250073301A1, “Delayed Release Compositions of Linaclotide” (Ironwood Pharmaceuticals, Inc., priority 2013, published 2025).
Ends that are not written are not given here.

Conditions: human volunteers, oral linaclotide

Sequence: CCEYCCNPACTGCY (cysteine pairing not given here) [linaclotide]
- oral dose found in feces: about 5%
